Reference: paper PMC7588595, “Small-molecule active pharmaceutical ingredients of approved cancer therapeutics inhibit human aspartate/asparagine-β-hydroxylase” (Bioorganic & Medicinal Chemistry, 2020)
Structures can show the parent of a compound that is named as a salt. Where two headings read alike, the source gives them in different places.

Biological target: T1, human AspH (His6-AspH315–758) (Homo sapiens, UniProt Q12797)
T1 construct: N-Terminally His6-tagged human AspH315–758 (His6-AspH315–758) was produced in Escherichia coli BL21 (DE3) cells; made in house; host or cells: Escherichia coli BL21 (DE3), pET-28a(+) vector
T1 sequence (Q12797 315-758): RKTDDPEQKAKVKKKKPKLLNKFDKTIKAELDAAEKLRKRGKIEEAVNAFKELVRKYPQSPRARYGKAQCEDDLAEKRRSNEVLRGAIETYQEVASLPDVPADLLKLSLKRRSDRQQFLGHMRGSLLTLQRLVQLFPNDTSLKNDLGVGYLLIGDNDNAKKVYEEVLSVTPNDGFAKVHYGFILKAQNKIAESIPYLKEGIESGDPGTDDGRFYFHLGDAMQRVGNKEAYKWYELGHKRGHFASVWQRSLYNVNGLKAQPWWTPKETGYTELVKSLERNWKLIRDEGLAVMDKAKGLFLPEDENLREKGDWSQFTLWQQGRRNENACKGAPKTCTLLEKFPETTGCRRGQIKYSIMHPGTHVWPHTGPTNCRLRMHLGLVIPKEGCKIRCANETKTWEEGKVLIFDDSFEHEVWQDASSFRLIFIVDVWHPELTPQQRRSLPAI
Test: SPE-MS AspH inhibition assay (hFX-CP101-119 substrate hydroxylation)
Assay type: biochemical

[1] = AspH-inhibitor screening, 384-well Plate 1
[2] = AspH-inhibitor screening, 384-well Plate 1, substrate conversion
[3] = AspH-inhibitor screening, Plate 1-duplicate
[4] = AspH-inhibitor screening, Plate 1-duplicate, substrate conversion

| SMILES | Plate 1 (% inhibition) [1] [%] | Plate 1 (% conversion) [2] [%] | Plate 1-duplicate (% inhibition) [3] [%] | Plate 1-duplicate (% conversion) [4] [%] | Plate 1 (% conversion) [%] | Plate 1 (% inhibition) [%] | Plate 1-duplicate (% conversion) [%] | Plate 1-duplicate (% inhibition) [%] |
| --- | --- | --- | --- | --- | --- | --- | --- | --- |
| NCC(=O)CCC(=O)O [Aminolevulinic acid hydrochloride] | 20.47 | 40.30 | 25.89 | 39.20 |  |  |  |  |
| CN(C)CCN1C(=O)c2cccc3cc(N)cc(c23)C1=O [Amonafide] | 4.40 | 47.72 | 3.28 | 50.42 |  |  |  |  |
| O=[As]O[As]=O (stereo not shown) [Arsenic(III) oxide] |  |  |  |  | 46.14 | 7.82 | 49.86 | 4.39 |
| CC(=O)Oc1ccccc1C(=O)O [Aspirin (Acetylsalicylic Acid)] | 8.11 | 46.01 | 6.00 | 49.07 |  |  |  |  |
| CC(C)c1c(C(=O)Nc2ccccc2)c(-c2ccccc2)c(-c2ccc(F)cc2)n1CC[C@@H](O)C[C@@H](O)CC(=O)[O-].CC(C)c1c(C(=O)Nc2ccccc2)c(-c2ccccc2)c(-c2ccc(F)cc2)n1CC[C@@H](O)C[C@@H](O)CC(=O)[O-].[Ca+2] [Atorvastatin Ca] |  |  |  |  |  | 0.42 |  | -1.82 |
| CC(=O)OC[C@H]1O[C@@H]([S-])[C@H](OC(C)=O)[C@@H](OC(C)=O)[C@@H]1OC(C)=O.CCP(CC)CC.[Au+] [Auranofin] | 60.34 | 21.89 | 55.51 | 24.51 |  |  |  |  |
| Nc1ncn([C@@H]2O[C@H](CO)[C@@H](O)[C@H]2O)c(=O)n1 [Azacitidine] | 17.64 | 41.61 | 12.26 | 45.96 |  |  |  |  |

Continued, in another order:

| Plate 1 (% inhibition) [1] [%] | Plate 1 (% conversion) [2] [%] | Plate 1-duplicate (% inhibition) [3] [%] | Plate 1-duplicate (% conversion) [4] [%] | SMILES | Plate 1 (% conversion) [%] | Plate 1 (% inhibition) [%] | Plate 1-duplicate (% conversion) [%] | Plate 1-duplicate (% inhibition) [%] |
| --- | --- | --- | --- | --- | --- | --- | --- | --- |
| 0.57 | 49.49 | 0.27 | 51.91 | O=C1CN2Cc3c(ccc(Cl)c3Cl)N=C2N1 [Anagrelide] |  |  |  |  |
| 2.34 | 48.67 | 3.84 | 50.14 | CC(C)(C#N)c1cc(Cn2cncn2)cc(C(C)(C)C#N)c1 [Anastrozole] |  |  |  |  |
| 0.59 | 49.48 | -0.34 | 52.21 | CNC(=O)c1ccccc1Sc1ccc2c(/C=C/c3ccccn3)n[nH]c2c1 [Axitinib] |  |  |  |  |
| 62.82 | 20.74 | 53.45 | 25.53 | CNC(=O)c1cc(Oc2ccc(NC(=O)Nc3ccc(Cl)c(C(F)(F)F)c3)c(F)c2)ccn1 [BAY 73-4506_Regorafenib] |  |  |  |  |
| -9.00 | 53.91 | -19.71 | 61.82 | CC[C@@H]1C(=O)N(C)c2cnc(Nc3ccc(C(=O)N[C@H]4CC[C@H](N5CCN(CC6CC6)CC5)CC4)cc3OC)nc2N1C(C)C [BI 6727_Volasertib] |  |  |  |  |
| -13.53 | 56.00 | -2.41 | 53.24 | COC(=O)c1ccc2c(c1)NC(=O)/C2=C(\Nc1ccc(N(C)C(=O)CN2CCN(C)CC2)cc1)c1ccccc1 [BIBF 1120_Nintedanib] |  |  |  |  |
| -24.14 | 60.90 | -42.32 | 73.03 | CN(C)C/C=C/C(=O)Nc1cc2c(Nc3ccc(F)c(Cl)c3)ncnc2cc1O[C@H]1CCOC1 [BIBW2992 (Tovok)_Afatinib] |  |  |  |  |
| 5.65 | 47.14 | 5.00 | 49.56 | COc1c(C)cnc(Cn2cnc3c(Cl)nc(N)nc32)c1C [BIIB021] |  |  |  |  |
